Molecular target: T1, TLR7 (Homo sapiens, UniProt Q9NYK1)
T1 construct: expressed in transfected cells; host or cells: HEK cells carrying TLR7 and an NF-kB reporter read with Steady-Glo
T1 sequence (Q9NYK1 27-1049): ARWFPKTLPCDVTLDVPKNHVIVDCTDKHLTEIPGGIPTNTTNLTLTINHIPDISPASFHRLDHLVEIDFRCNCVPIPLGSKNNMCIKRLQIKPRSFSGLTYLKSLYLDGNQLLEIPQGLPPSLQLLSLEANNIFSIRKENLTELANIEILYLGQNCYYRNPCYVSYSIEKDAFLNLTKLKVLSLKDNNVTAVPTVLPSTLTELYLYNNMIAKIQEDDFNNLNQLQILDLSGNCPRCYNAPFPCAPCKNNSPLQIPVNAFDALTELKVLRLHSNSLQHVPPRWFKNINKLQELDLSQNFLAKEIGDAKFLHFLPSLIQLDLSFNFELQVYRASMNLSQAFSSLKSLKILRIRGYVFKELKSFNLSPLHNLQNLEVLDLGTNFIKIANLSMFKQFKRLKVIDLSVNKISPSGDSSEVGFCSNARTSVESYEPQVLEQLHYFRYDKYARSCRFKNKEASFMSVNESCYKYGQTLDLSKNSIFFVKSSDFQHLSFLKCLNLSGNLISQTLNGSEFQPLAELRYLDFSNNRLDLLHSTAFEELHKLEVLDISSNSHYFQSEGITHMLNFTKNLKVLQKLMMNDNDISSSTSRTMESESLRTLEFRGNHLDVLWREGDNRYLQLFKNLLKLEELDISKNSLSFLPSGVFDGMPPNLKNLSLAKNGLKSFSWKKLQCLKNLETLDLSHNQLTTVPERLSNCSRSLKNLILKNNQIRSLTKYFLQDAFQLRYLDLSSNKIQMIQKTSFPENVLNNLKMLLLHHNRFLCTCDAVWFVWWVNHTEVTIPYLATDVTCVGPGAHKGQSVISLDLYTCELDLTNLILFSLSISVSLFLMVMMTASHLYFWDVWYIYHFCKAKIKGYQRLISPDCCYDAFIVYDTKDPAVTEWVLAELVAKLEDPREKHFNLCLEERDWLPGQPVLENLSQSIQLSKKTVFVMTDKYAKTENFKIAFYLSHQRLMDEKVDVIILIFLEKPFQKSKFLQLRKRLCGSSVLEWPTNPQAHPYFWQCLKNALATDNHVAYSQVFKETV
Assay: HEK Cell Assay (TLR7/NFKb HEK reporter cells, Steady-Glo)
Type: cell-based
Conditions: compound 30 min, then R*48 agonist 5 hours, Steady-Glo readout, read-out: Potency
Outline: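 TLR7/NF-κB HEK reporter cells cultured 24 h, then pre-incubated 30 min with compound before adding R*48 agonist. Luciferase read by Steady-Glo luminescence after 5 h.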

| SMILES | IC50 [µM] |
| --- | --- |
| Cc1ccc([C@@H]2C[C@@H](C)CN(C(=O)CC3CCN(C)CC3)C2)c2cccnc12 [Compound 80, 1-[(3R,5S)-3-Methyl-5-(8-methyl-quinolin-5-yl)-piperidin-1-yl]-2-(1-methyl-piperidin-4-yl)-ethanone] | < 1 |
| Cc1ccc([C@H]2C[C@@H](C)CN(C(=O)CC3CCN(C)CC3)C2)c2cccnc12 [Compound 81, 1-[(3R,5R)-3-Methyl-5-(8-methyl-quinolin-5-yl)-piperidin-1-yl]-2-(1-methyl-piperidin-4-yl)-ethanone] | < 1 |
| Cc1ccc([C@@H]2C[C@H](C)CN(C(=O)CC3CCN(C)CC3)C2)c2cccnc12 [Compound 82, 1-[(3S,5S)-3-Methyl-5-(8-methyl-quinolin-5-yl)-piperidin-1-yl]-2-(1-methyl-piperidin-4-yl)-ethanone] | 1 to 20 |
| Cc1ccc([C@H]2C[C@H](C)CN(C(=O)CC3CCN(C)CC3)C2)c2cccnc12 [Compound 83, 1-[(3S,5R)-3-Methyl-5-(8-methyl-quinolin-5-yl)-piperidin-1-yl]-2-(1-methyl-piperidin-4-yl)-ethanone] | < 1 |
| Cc1ccc([C@H]2C[C@@H](C)CN(C(=O)CC3C4CC3CN(C)C4)C2)c2cccnc12 (stereo partly drawn) [Compound 84, 2-(3-Methyl-3-aza-bicyclo [3.1.1]hept-6-yl)-1-[(3R,5R)-3-methyl-5-(8-methyl-quinolin-5-yl)-piperidin-1-yl]-ethanone] | < 1 |
| C[C@@H]1C[C@H](c2cc(F)c(C#N)c3ncccc23)CN(C(=O)CC2CCN(C)CC2)C1 [Compound 85, 7-Fluoro-5-{(3R,5R)-5-methyl-1-[2-(1-methyl-piperidin-4-yl)-acetyl]-piperidin-3-yl}-quinoline-8-carbonitrile] | 1 to 20 |
| COc1ccc([C@@H]2C[C@@H](C)CN(C(=O)CC3CCN(C)CC3)C2)c2cccnc12 [Compound 86, 1-[(3S,5R)-3-(8-Methoxy-quinolin-5-yl)-5-methyl-piperidin-1-yl]-2-(1-methyl-piperidin-4-yl)-ethanone] | < 1 |
| COc1ccc([C@H]2C[C@@H](C)CN(C(=O)CC3CCN(C)CC3)C2)c2cccnc12 [Compound 87, 1-[(3R,5R)-3-(8-Methoxy-quinolin-5-yl)-5-methyl-piperidin-1-yl]-2-(1-methyl-piperidin-4-yl)-ethanone] | < 1 |
| COc1ncc([C@@H]2C[C@@H](C)CN(C(=O)CC3CCN(C)CC3)C2)c2cccnc12 [Compound 88, 1-[(3S,5R)-3-(8-Methoxy-[1,7]naphthyridin-5-yl)-5-methyl-piperidin-1-yl]-2-(1-methyl-piperidin-4-yl)-ethanone] | 1 to 20 |
| COc1ncc([C@H]2C[C@@H](C)CN(C(=O)CC3CCN(C)CC3)C2)c2cccnc12 [Compound 89, 1-[(3R,5R)-3-(8-Methoxy-[1,7]naphthyridin-5-yl)-5-methyl-piperidin-1-yl]-2-(1-methyl-piperidin-4-yl)-ethanone] | 1 to 20 |
| Cc1c(F)cc([C@H]2C[C@@H](C)CN(C(=O)CC3CCN(C)CC3)C2)c2cccnc12 [Compound 90, 1-[(3R,5R)-3-(7-Fluoro-8-methyl-quinolin-5-yl)-5-methyl-piperidin-1-yl]-2-(1-methyl-piperidin-4-yl)-ethanone] | < 1 |
| C[C@@H]1C[C@H](c2ccc(C#N)c3ncccc23)CN(C(=O)C[C@H]2CCN(C)CC2(F)F)C1 [Compound 91, 5-{(3R,5R)-1-[2-((R)-3,3-Difluoro-1-methyl-piperidin-4-yl)-acetyl]-5-methyl-piperidin-3-yl}-quinoline-8-carbonitrile] | 1 to 20 |
| C[C@@H]1C[C@H](c2ccc(C#N)c3ncccc23)CN(C(=O)C[C@@H]2CCN(C)CC2(F)F)C1 [Compound 92, 5-((3R,5R)-1-[2-((S)-3,3-Difluoro-1-methyl-piperidin-4-yl)-acetyl]-5-methyl-piperidin-3-yl}-quinoline-8-carbonitrile] | < 1 |
| C[C@@H]1C[C@H](c2ccc(C#N)c3ncccc23)CN(C(=O)CC2C3CC2CN(C)C3)C1 (stereo partly drawn) [Compound 93, 5-[(3R,5R)-5-methyl-1-[2-(3-methyl-3-azabicyclo[3.1.1]heptan-6-yl)acetyl]-3-piperidyl]quinoline-8-carbonitrile] | < 1 |
| Cc1ncc([C@@H]2C[C@@H](C)CN(C(=O)CC3CCN(C)CC3)C2)c2cccnc12 [Compound 94, 1-[(3R,5S)-3-Methyl-5-(8-methyl-[1,7]naphthyridin-5-yl)-piperidin-1-yl]-2-(1-methyl-piperidin-4-yl)-ethanone] | 1 to 20 |
| Cc1ncc([C@H]2C[C@@H](C)CN(C(=O)CC3CCN(C)CC3)C2)c2cccnc12 [Compound 95, 1-[(3R,5R)-3-Methyl-5-(8-methyl-[1,7]naphthyridin-5-yl)-piperidin-1-yl]-2-(1-methyl-piperidin-4-yl)-ethanone] | 1 to 20 |
| C[C@@H]1C[C@@H](c2ccc(C#N)c3ncccc23)CN(C(=O)CN2CCN(C)CC2)C1 [Compound 96, 5-{(3S,5R)-5-Methyl-1-[2-(4-methyl-piperazin-1-yl)-acetyl]-piperidin-3-yl}-quinoline-8-carbonitrile] | 1 to 20 |
| C[C@@H]1C[C@H](c2ccc(C#N)c3ncccc23)CN(C(=O)CN2CCN(C)CC2)C1 [Compound 97, 5-((3R,5R)-5-Methyl-1-[2-(4-methyl-piperazin-1-yl)-acetyl]-piperidin-3-yl}-quinoline-8-carbonitrile] | < 1 |
| C[C@@H]1C[C@H](c2ccc(C#N)c3ncccc23)CN(C(=O)C2(N)CC2)C1 [Compound 98, 5-[(3R,5R)-1-(1-Amino-cyclopropanecarbonyl)-5-methyl-piperidin-3-yl]-quinoline-8-carbonitrile] | > 20 |
| C[C@@H]1C[C@@H](c2ccc(C#N)c3ncccc23)CN(C(=O)C2CC(N)C2)C1 (stereo partly drawn) [Compound 99, 5-[(3S,5R)-1-(3-aminocyclobutanecarbonyl)-5-methyl-3-piperidyl]quinoline-8-carbonitrile] | 1 to 20 |
| C[C@@H]1C[C@H](c2ccc(C#N)c3ncccc23)CN(C(=O)C2CC(N)C2)C1 (stereo partly drawn) [Compound 100, 5-[(3R,5R)-1-(3-aminocyclobutanecarbonyl)-5-methyl-3-piperidyl]quinoline-8-carbonitrile] | < 1 |
| C[C@H]1C[C@H](c2ccc(C#N)c3nccnc23)CN(C(=O)CC2CCN(C)CC2)C1 [Compound 101, 8-{(3R,5S)-5-Methyl-1-[2-(1-methyl-piperidin-4-yl)-acetyl]-piperidin-3-yl}-quinoxaline-5-carbonitrile] | > 20 |
| C[C@H]1C[C@@H](c2ccc(C#N)c3nccnc23)CN(C(=O)CC2CCN(C)CC2)C1 [Compound 102, 8-{(3S,5S)-5-Methyl-1-[2-(1-methyl-piperidin-4-yl)-acetyl]-piperidin-3-yl}-quinoxaline-5-carbonitrile] | < 1 |
| C[C@@H]1C[C@H](c2ccc(OC(F)(F)F)c3ncccc23)CN(C(=O)CC2CCN(C)CC2)C1 [Compound 103, 2-(1-Methyl-piperidin-4-yl)-1-[(3R,5R)-3-methyl-5-(8-trifluoromethoxy-quinolin-5-yl)-piperidin-1-yl]-ethanone] | 1 to 20 |
| C[C@@H]1C[C@@H](c2ccc(OC(F)(F)F)c3ncccc23)CN(C(=O)CN2CCN(C)CC2)C1 [Compound 104, 2-(4-Methyl-piperazin-1-yl)-1-[(3R,5S)-3-methyl-5-(8-trifluoromethoxy-quinolin-5-yl)-piperidin-1-yl]-ethanone] | > 20 |
| C[C@@H]1C[C@H](c2ccc(OC(F)(F)F)c3ncccc23)CN(C(=O)CN2CCN(C)CC2)C1 [Compound 105, 2-(4-Methyl-piperazin-1-yl)-1-[(3R,5R)-3-methyl-5-(8-trifluoromethoxy-quinolin-5-yl)-piperidin-1-yl]-ethanone] | 1 to 20 |
| C[C@@H]1C[C@H](c2ccc(C#N)c3ncccc23)CN(Cc2cnn(C)c2)C1 [Compound 106, 5-[(3R,5R)-5-methyl-1-[(1-methylpyrazol-4-yl)methyl]-3-piperidyl]quinoline-8-carbonitrile] | > 20 |
| CC1CC(c2ccc(C#N)c3ncccc23)CN(C(=O)NC2CCN(C)CC2)C1 (centres unmarked) [Compound 109, 3-(8-Cyano-quinolin-5-yl)-5-methyl-piperidine-1-carboxylic acid (1-methyl-piperidin-4-yl)-amide] | < 1 |
| CC1CC(c2ccc(C#N)c3ncccc23)CN(C(=O)NCC2CC(F)(F)C2)C1 (centres unmarked) [Compound 110, 3-(8-Cyano-quinolin-5-yl)-5-methyl-piperidine-1-carboxylic acid (3,3-difluoro-cyclobutylmethyl)-amide] | 1 to 20 |

Source: US11512069B2, “TLR7/8 antagonists and uses thereof” (Merck Patent GmbH, priority 2016, dated 2022)
